{"source": "patent US9493466B2", "about": "“Treatment of cancer with TOR kinase inhibitors” (Signal Pharmaceuticals, LLC, priority 2011, dated 2016)", "assay_in_all_cases": "Growth inhibition assay for NHL lines", "format_in_all_cases": "cell-based", "key": {"SU-DHL-4": {"test_system": "SU-DHL-4", "conditions": "SU-DHL-4, NHL DLBCL, 96 hours, n ≧ 3", "protocol": "(§1) Growth Inhibition Assay for HCC and NHL Lines. The seeding density for each cell line was optimized to ensure assay linearity in 384-well plates.\n(§2) Compound 1 was dissolved in dimethyl sulfoxide (DMSO) to prepare a 10 mM stock solution. A serial titration was performed to produce a working concentration range of […] to 10 mM. Aliquots to produce final concentrations of 1.5 nM to 10 μM were spotted via an acoustic dispenser (EDC ATS-100) into an empty 384-well plate. Compound 1 was spotted in a 10-point serial dilution fashion (3-fold dilution) in duplicate within the plate. The DMSO concentration was kept constant for a final assay concentration of 0.1% DMSO. Plates were replicated for use with different cell lines and testing periods. After compound plate replication, all plates were sealed (Agilent ThermoLoc) and stored at −20° C. for up to 1 month. […] When ready for testing, plates were removed from the freezer, thawed, and unsealed just prior to the addition of the test cells. Prior to testing, cells were grown and expanded in culture flasks to provide sufficient amounts of starting material. Cells were then diluted to the appropriate densities and added directly to the compound-spotted 384-well plates. Cells were allowed to grow for 96 hours at 37° C./5% CO2. At the time when compound was added (t0), initial cell number was assessed via a viability assay (Cell Titer-Glo) by quantifying the level of luminescence generated by ATP present in viable cells. After 96 hours, cell viability of compound-treated cells was assessed via Cell Titer-Glo and luminescence measurement. Cell lines were assayed for growth inhibition by Compound 1 in at least 3 independent tests. A control cell line (the lung tumor cell line, A549) was included in each of the assays. The compound response against this control cell line was monitored closely to enable comparison of the data generated through the assay period. All data were normalized and presented as a percentage of the DMSO-treated cells. Results were then expressed as a GI50 value. The GI50 value corrects for the cell count at time zero. In addition, the IC50 value of Compound 1 for each cell line was calculated."}, "WSU-DLCL2": {"test_system": "WSU-DLCL2", "conditions": "WSU-DLCL2, NHL DLBCL, 96 hours, n ≧ 3", "protocol": "as §1, §2"}, "WSU-NHL": {"test_system": "WSU-NHL", "conditions": "NHL FL, 96 hours, n ≧ 3", "protocol": "as §1, §2"}, "SU-DHL-16": {"test_system": "SU-DHL-16", "conditions": "SU-DHL-16, NHL DLBCL, 96 hours, n ≧ 3", "protocol": "as §1, §2"}, "JVM-2": {"test_system": "JVM-2", "conditions": "JVM-2, NHL MCL, 96 hours, n ≧ 3", "protocol": "as §1, §2"}, "KARPAS-422": {"test_system": "KARPAS-422", "conditions": "KARPAS-422, NHL DLBCL, 96 hours, n ≧ 3", "protocol": "as §1, §2"}, "DOHH-2": {"test_system": "DOHH-2", "conditions": "DOHH-2, NHL FL, 96 hours, n ≧ 3", "protocol": "as §1, §2"}, "Pfeiffer": {"test_system": "Pfeiffer", "conditions": "NHL DLBCL, 96 hours, n ≧ 3", "protocol": "as §1, §2"}, "JVM-13": {"test_system": "JVM-13", "conditions": "JVM-13, NHL MCL, 96 hours, n ≧ 3", "protocol": "as §1, §2"}, "HL-60": {"test_system": "HL-60", "conditions": "HL-60, Leukemia M-AML, 96 hours, n ≧ 3", "protocol": "as §1, §2"}, "U-2940": {"test_system": "U-2940", "conditions": "U-2940, NHL DLBCL, 96 hours, n ≧ 3", "protocol": "as §1, §2"}, "OCI-LY-7": {"test_system": "OCI-LY-7", "conditions": "OCI-LY-7, NHL DLBCL, 96 hours, n ≧ 3", "protocol": "as §1, §2"}, "HT": {"test_system": "HT", "conditions": "NHL DLBCL, 96 hours, n ≧ 3", "protocol": "as §1, §2"}, "U-2932": {"test_system": "U-2932", "conditions": "U-2932, NHL DLBCL, 96 hours, n ≧ 3", "protocol": "as §1, §2"}, "KG-1": {"test_system": "KG-1", "conditions": "KG-1, Leukemia M-AML, 96 hours, n ≧ 3", "protocol": "as §1, §2"}, "SU-DHL-6": {"test_system": "SU-DHL-6", "conditions": "SU-DHL-6, NHL DLBCL, 96 hours, n ≧ 3", "protocol": "as §1, §2"}, "OCI-LY-3": {"test_system": "OCI-LY-3", "conditions": "OCI-LY-3, NHL DLBCL, 96 hours, n ≧ 3", "protocol": "as §1, §2"}, "SU-DHL-8": {"test_system": "SU-DHL-8", "conditions": "SU-DHL-8, NHL DLBCL, 96 hours, n ≧ 3", "protocol": "as §1, §2"}, "DB": {"test_system": "DB", "conditions": "NHL DLBCL, 96 hours, n ≧ 3", "protocol": "as §1, §2"}, "Toledo": {"test_system": "Toledo", "conditions": "NHL DLBCL, 96 hours, n ≧ 3", "protocol": "as §1, §2"}, "Mino": {"test_system": "Mino", "conditions": "NHL MCL, 96 hours, n ≧ 3", "protocol": "as §1, §2"}, "NU-DHL-1": {"test_system": "NU-DHL-1", "conditions": "NU-DHL-1, NHL DLBCL, 96 hours, n ≧ 3", "protocol": "as §1, §2"}, "Farage": {"test_system": "Farage", "conditions": "NHL DLBCL, 96 hours, n ≧ 3", "protocol": "as §1, §2"}, "RC-K8": {"test_system": "RC-K8", "conditions": "RC-K8, NHL DLBCL, 96 hours, n ≧ 3", "protocol": "as §1, §2"}, "KARPAS-1106P": {"test_system": "KARPAS-1106P", "conditions": "NHL DLBCL, 96 hours, n ≧ 3", "protocol": "as §1, §2"}}}
{"smiles": "CO[C@H]1CC[C@H](N2C(=O)CNc3ncc(-c4ccc(C(C)(C)O)nc4)nc32)CC1", "note": "[Compound 1, 7-(6-(2-hydroxypropan-2-yl)pyridin-3-yl)-1-((1r,4r)-4-methoxycyclohexyl)-3,4-dihydropyrazino-[2,3-b]pyrazin-2(1H)-one]", "values": [{"measurement": "GI50", "setting": "SU-DHL-4", "value": "110 ± 40", "unit": "nM"}, {"measurement": "IC50", "setting": "SU-DHL-4", "value": "120 ± 50", "unit": "nM"}, {"measurement": "GI50", "setting": "WSU-DLCL2", "value": "90 ± 20", "unit": "nM"}, {"measurement": "IC50", "setting": "WSU-DLCL2", "value": "90 ± 20", "unit": "nM"}, {"measurement": "GI50", "setting": "WSU-NHL", "value": 50, "unit": "nM"}, {"measurement": "IC50", "setting": "WSU-NHL", "value": 70, "unit": "nM"}, {"measurement": "GI50", "setting": "SU-DHL-16", "value": "110 ± 20", "unit": "nM"}, {"measurement": "IC50", "setting": "SU-DHL-16", "value": "110 ± 20", "unit": "nM"}, {"measurement": "GI50", "setting": "JVM-2", "value": "260 ± 50", "unit": "nM"}, {"measurement": "IC50", "setting": "JVM-2", "value": "440 ± 180", "unit": "nM"}, {"measurement": "GI50", "setting": "KARPAS-422", "value": "20 ± 10", "unit": "nM"}, {"measurement": "IC50", "setting": "KARPAS-422", "value": "20 ± 10", "unit": "nM"}, {"measurement": "GI50", "setting": "DOHH-2", "value": "130 ± 20", "unit": "nM"}, {"measurement": "IC50", "setting": "DOHH-2", "value": "160 ± 30", "unit": "nM"}, {"measurement": "GI50", "setting": "Pfeiffer", "value": "90 ± 40", "unit": "nM"}, {"measurement": "IC50", "setting": "Pfeiffer", "value": "190 ± 70", "unit": "nM"}, {"measurement": "GI50", "setting": "JVM-13", "value": "1770 ± 1610", "unit": "nM"}, {"measurement": "IC50", "setting": "JVM-13", "value": "3490 ± 2480", "unit": "nM"}, {"measurement": "GI50", "setting": "HL-60", "value": "240 ± 60", "unit": "nM"}, {"measurement": "IC50", "setting": "HL-60", "value": "380 ± 130", "unit": "nM"}, {"measurement": "GI50", "setting": "U-2940", "value": "110 ± 70", "unit": "nM"}, {"measurement": "IC50", "setting": "U-2940", "value": "180 ± 100", "unit": "nM"}, {"measurement": "GI50", "setting": "OCI-LY-7", "value": "190 ± 30", "unit": "nM"}, {"measurement": "IC50", "setting": "OCI-LY-7", "value": "250 ± 30", "unit": "nM"}, {"measurement": "GI50", "setting": "HT", "value": "110 ± 40", "unit": "nM"}, {"measurement": "IC50", "setting": "HT", "value": "170 ± 50", "unit": "nM"}, {"measurement": "GI50", "setting": "U-2932", "value": "300 ± 30", "unit": "nM"}, {"measurement": "IC50", "setting": "U-2932", "value": "450 ± 10", "unit": "nM"}, {"measurement": "GI50", "setting": "KG-1", "value": "60 ± 20", "unit": "nM"}, {"measurement": "IC50", "setting": "KG-1", "value": "370 ± 40", "unit": "nM"}, {"measurement": "GI50", "setting": "SU-DHL-6", "value": "160 ± 40", "unit": "nM"}, {"measurement": "IC50", "setting": "SU-DHL-6", "value": "200 ± 60", "unit": "nM"}, {"measurement": "GI50", "setting": "OCI-LY-3", "value": "210 ± 60", "unit": "nM"}, {"measurement": "IC50", "setting": "OCI-LY-3", "value": "290 ± 70", "unit": "nM"}, {"measurement": "GI50", "setting": "SU-DHL-8", "value": "80 ± 40", "unit": "nM"}, {"measurement": "IC50", "setting": "SU-DHL-8", "value": "100 ± 40", "unit": "nM"}, {"measurement": "GI50", "setting": "DB", "value": "150 ± 100", "unit": "nM"}, {"measurement": "IC50", "setting": "DB", "value": "170 ± 90", "unit": "nM"}, {"measurement": "GI50", "setting": "Toledo", "value": "70 ± 20", "unit": "nM"}, {"measurement": "IC50", "setting": "Toledo", "value": "440 ± 20", "unit": "nM"}, {"measurement": "GI50", "setting": "Mino", "value": "370 ± 130", "unit": "nM"}, {"measurement": "IC50", "setting": "Mino", "value": "480 ± 100", "unit": "nM"}, {"measurement": "GI50", "setting": "NU-DHL-1", "value": "80 ± 30", "unit": "nM"}, {"measurement": "IC50", "setting": "NU-DHL-1", "value": "110 ± 50", "unit": "nM"}, {"measurement": "GI50", "setting": "Farage", "value": "270 ± 30", "unit": "nM"}, {"measurement": "IC50", "setting": "Farage", "value": "280 ± 40", "unit": "nM"}, {"measurement": "GI50", "setting": "RC-K8", "value": "80 ± 10", "unit": "nM"}, {"measurement": "IC50", "setting": "RC-K8", "value": "150 ± 30", "unit": "nM"}, {"measurement": "GI50", "setting": "KARPAS-1106P", "value": "70 ± 30", "unit": "nM"}, {"measurement": "IC50", "setting": "KARPAS-1106P", "value": "70 ± 30", "unit": "nM"}]}
